According to US5756120A, “Antibiotic formulation and use for drug resistant infections” (NeXstar Pharmaceuticals, Inc., priority 1995, dated 1998):
“And” between values parts separate entries of the source, which are not always exact repeats. Identical values can stand only once. “Also recorded” adds a separate entry of the source. Like-named read-outs stand apart in the source and are kept apart here.

System: M. tuberculosis drug resistant strain Vertulla
Assay type: cell-based
Conditions: for CFU (1 × 10^3): duplicate values; for inhibition or killing of drug resistant M. tuberculosis: concentrations tested (4, 8 and 16 μg/ml)

## NCC[C@H](O)C(=O)N[C@@H]1C[C@H](N)[C@@H](O[C@H]2O[C@H](CN)[C@@H](O)[C@H](O)[C@H]2O)[C@H](O)[C@H]1O[C@H]1O[C@H](CO)[C@@H](O)[C@H](N)[C@H]1O [amikacin]
4 μg/ml, day 4
  Avg. log CFU: 3.9 log CFU
  CFU (1 × 10^3): 9.3 1 × 10^3 CFU and 8.0 1 × 10^3 CFU
4 μg/ml, day 7
  Avg. log CFU: 5.2 log CFU
8 μg/ml, day 4
  Avg. log CFU: 3.7 log CFU
  CFU (1 × 10^3): 5 1 × 10^3 CFU and 4 1 × 10^3 CFU
8 μg/ml, day 7
  Avg. log CFU: 3.7 log CFU
  CFU (1 × 10^3): 4.5 1 × 10^3 CFU and 6.2 1 × 10^3 CFU
16 μg/ml, day 4
  Avg. log CFU: 3.7 log CFU
  CFU (1 × 10^3): 5 1 × 10^3 CFU and 5.4 1 × 10^3 CFU
16 μg/ml, day 7
  Avg. log CFU: 3.6 log CFU
  CFU (1 × 10^3): 3.7 1 × 10^3 CFU and 4.1 1 × 10^3 CFU
Listed as free amikacin
  inhibition or killing of drug resistant M. tuberculosis: at the most, inhibition; also recorded: only inhibit the growth of the infection without killing at the concentrations tested
Listed as free drug
  inhibition or killing of drug resistant M. tuberculosis: only inhibits the growth of the bacteria
